In US10961231B2, “NTCP inhibitors” (National Institute of Biological Sciences, Beijing, priority 2018, dated 2021):

Target: T1, NTCP (Homo sapiens, UniProt Q14973)
T1 sequence (Q14973 1-349): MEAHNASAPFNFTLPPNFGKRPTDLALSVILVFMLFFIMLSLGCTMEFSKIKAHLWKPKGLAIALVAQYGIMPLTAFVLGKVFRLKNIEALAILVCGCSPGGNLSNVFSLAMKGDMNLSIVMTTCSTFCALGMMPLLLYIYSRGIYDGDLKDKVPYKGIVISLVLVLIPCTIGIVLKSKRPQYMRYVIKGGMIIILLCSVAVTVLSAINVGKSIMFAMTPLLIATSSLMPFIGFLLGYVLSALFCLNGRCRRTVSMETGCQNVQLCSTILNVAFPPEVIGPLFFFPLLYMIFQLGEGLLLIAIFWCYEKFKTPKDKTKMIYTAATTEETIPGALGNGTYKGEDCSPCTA
Assay: [3H]-TCA uptake assay (NTCP inhibition)
Type: cell-based
Experimental: [^3H]-TCA uptake assay. PTH and HepG2-NTCP cells were cultured in PMM for 24 hours to induce NTCP expression. After treated by DMSO or test compounds for 2 hours, the cells were then incubated with 1 μM [^3H]-taurocholate acid dissolved in Na^+ Ringer's buffer (the concentration of Na was 145 mM) for 15 minutes at 37° C. Subsequently, the cells were washed once in phosphate-buffered saline (PBS) and lysed in 50 μL 1% TritonX-100 in H2O for 5 minutes at room temperature. The lysate were totally transferred into a liquid scintillation 96 well plate and mixed with 200 μL liquid scintillation cocktail (Ultima Gold XR, PerkinElmer). Liquid scintillation counting was performed on a PerkinElmer 1450 LSC liquid scintillation counter.

[1] = given as a range, assay not given
[2] = IC50, given as a range, marked * (asterisk not explained)
[3] = IC50, given as a range, assay not given
[4] = given as a range, marked * (asterisk not explained)

| SMILES | IC50 [1] [nM] | IC50 [2] [nM] | further results |
| --- | --- | --- | --- |
| CCC1NC(=O)C(C2OC(Sc3ccc(Cl)c(OCCOC)c3)CC2C)N(C)C(=O)C(C(C)C)N(C)C(=O)C(CC(C)C)N(C)C(=O)C(CC(C)C)N(C)C(=O)C(C)NC(=O)C(C)NC(=O)C(CC(C)C)N(C)C(=O)C(C(C)C)NC(=O)C(CC(C)C)N(C)C(=O)CN(C)C1=O [Compound 45A, [2-((2R,3R)-5-(4-chloro-3-(2-methoxyethoxy)phenylthio)-3-methyltetrahydrofuran-2-yl)-2-(methylamino)acetic acid]^1-cyclosporin A] | 1 to 1000 |  |  |
| CCC1NC(=O)C(C2OC(Oc3ccc4ccccc4c3)CC2C)N(C)C(=O)C(C(C)C)N(C)C(=O)C(CC(C)C)N(C)C(=O)C(CC(C)C)N(C)C(=O)C(C)NC(=O)C(C)NC(=O)C(CC(C)C)N(C)C(=O)C(C(C)C)NC(=O)C(CC(C)C)N(C)C(=O)CN(C)C1=O (centres unmarked) [Compound 62-o] |  | 1000 to 100000 |  |
| CCC1NC(=O)C(C2OC(OCc3ccc(Cl)cc3Cl)CC2C)N(C)C(=O)C(C(C)C)N(C)C(=O)C(CC(C)C)N(C)C(=O)C(CC(C)C)N(C)C(=O)C(C)NC(=O)C(C)NC(=O)C(CC(C)C)N(C)C(=O)C(C(C)C)NC(=O)C(CC(C)C)N(C)C(=O)CN(C)C1=O (single isomer, unassigned) [Compound 89B] | 1 to 1000 |  |  |
| CCC1NC(=O)C(C2OC(Sc3cccc(OCc4ccccn4)c3)CC2C)N(C)C(=O)C(C(C)C)N(C)C(=O)C(CC(C)C)N(C)C(=O)C(CC(C)C)N(C)C(=O)C(C)NC(=O)C(C)NC(=O)C(CC(C)C)N(C)C(=O)C(C(C)C)NC(=O)C(CC(C)C)N(C)C(=O)CN(C)C1=O [Compound 52A, [2-((2R,3R)-3-methyl-5-(3-(pyridin-2-ylmethoxy)phenylthio)tetrahydrofuran-2-yl)-2-(methylamino)acetic acid]^1-cyclosporin A] | 1 to 1000 |  |  |
| CCC1NC(=O)C(C2OC(SCc3ccc(Cl)cc3)CC2C)N(C)C(=O)C(C(C)C)N(C)C(=O)C(CC(C)C)N(C)C(=O)C(CC(C)C)N(C)C(=O)C(C)NC(=O)C(C)NC(=O)C(CC(C)C)N(C)C(=O)C(C(C)C)NC(=O)C(CC(C)C)N(C)C(=O)CN(C)C1=O (centres unmarked) [Compound 86A-s] |  |  | IC50 [3]: 1000 to 100000 nM |
| CCC1NC(=O)C(C2OC(Sc3cc(OCCOC)cc(OCc4ccccc4)c3)CC2C)N(C)C(=O)C(C(C)C)N(C)C(=O)C(CC(C)C)N(C)C(=O)C(CC(C)C)N(C)C(=O)C(C)NC(=O)C(C)NC(=O)C(CC(C)C)N(C)C(=O)C(C(C)C)NC(=O)C(CC(C)C)N(C)C(=O)CN(C)C1=O (centres unmarked) [Compound 11] |  |  | IC50 [4]: 1000 to 100000 nM |
| CCC1NC(=O)C(C2OC(Oc3cccc(OCc4ccc5ccc(=O)oc5c4)c3)CC2C)N(C)C(=O)C(C(C)C)N(C)C(=O)C(CC(C)C)N(C)C(=O)C(CC(C)C)N(C)C(=O)C(C)NC(=O)C(C)NC(=O)C(CC(C)C)N(C)C(=O)C(C(C)C)NC(=O)C(CC(C)C)N(C)C(=O)CN(C)C1=O (centres unmarked) [Compound 58A-o] |  |  | IC50 [4]: 1000 to 100000 nM |
| CCOc1cccc(OC2CC(C)C(C3C(=O)NC(CC)C(=O)N(C)CC(=O)N(C)C(CC(C)C)C(=O)NC(C(C)C)C(=O)N(C)C(CC(C)C)C(=O)NC(C)C(=O)NC(C)C(=O)N(C)C(CC(C)C)C(=O)N(C)C(CC(C)C)C(=O)N(C)C(C(C)C)C(=O)N3C)O2)c1 (centres unmarked) [Compound 29A-o] |  | 1000 to 100000 |  |
| CCC1NC(=O)C(C2OC(Oc3ccc(Cl)c(OCC4CCOCC4)c3)CC2C)N(C)C(=O)C(C(C)C)N(C)C(=O)C(CC(C)C)N(C)C(=O)C(CC(C)C)N(C)C(=O)C(C)NC(=O)C(C)NC(=O)C(CC(C)C)N(C)C(=O)C(C(C)C)NC(=O)C(CC(C)C)N(C)C(=O)CN(C)C1=O (centres unmarked) [Compound 43A-o] |  | 1000 to 100000 |  |
| CCC1NC(=O)C(C2OC(SCc3cc(F)c(Cl)cc3Cl)CC2C)N(C)C(=O)C(C(C)C)N(C)C(=O)C(CC(C)C)N(C)C(=O)C(CC(C)C)N(C)C(=O)C(C)NC(=O)C(C)NC(=O)C(CC(C)C)N(C)C(=O)C(C(C)C)NC(=O)C(CC(C)C)N(C)C(=O)CN(C)C1=O (centres unmarked) [Compound 101A-s] |  | 1000 to 100000 |  |
| CCC1NC(=O)C(C2OC(SCc3cc(Cl)c(Cl)cc3Cl)CC2C)N(C)C(=O)C(C(C)C)N(C)C(=O)C(CC(C)C)N(C)C(=O)C(CC(C)C)N(C)C(=O)C(C)NC(=O)C(C)NC(=O)C(CC(C)C)N(C)C(=O)C(C(C)C)NC(=O)C(CC(C)C)N(C)C(=O)CN(C)C1=O (centres unmarked) [Compound 104-s] |  | 1000 to 100000 |  |
| CCC1NC(=O)C(C2OC(Oc3cc(OCCOC)cc(OCC4CCOCC4)c3)CC2C)N(C)C(=O)C(C(C)C)N(C)C(=O)C(CC(C)C)N(C)C(=O)C(CC(C)C)N(C)C(=O)C(C)NC(=O)C(C)NC(=O)C(CC(C)C)N(C)C(=O)C(C(C)C)NC(=O)C(CC(C)C)N(C)C(=O)CN(C)C1=O (centres unmarked) [Compound 55-o] |  |  | IC50 [4]: 1000 to 100000 nM |
| CCC1NC(=O)C(C2OC(Sc3cccc(OCc4ccc(CN(C)C)cc4)c3)CC2C)N(C)C(=O)C(C(C)C)N(C)C(=O)C(CC(C)C)N(C)C(=O)C(CC(C)C)N(C)C(=O)C(C)NC(=O)C(C)NC(=O)C(CC(C)C)N(C)C(=O)C(C(C)C)NC(=O)C(CC(C)C)N(C)C(=O)CN(C)C1=O [Compound 13A, [2-((2R,3R)-5-(3-(4-((dimethylamino)methyl)benzyloxy)phenylthio)-3-methyltetrahydrofuran-2-yl)-2-(methylamino)acetic acid]^1-cyclosporin A] | 1 to 1000 |  |  |
| CCC1NC(=O)C(C2OC(Sc3ccc(Cl)c(OCc4ccccc4)c3)CC2C)N(C)C(=O)C(C(C)C)N(C)C(=O)C(CC(C)C)N(C)C(=O)C(CC(C)C)N(C)C(=O)C(C)NC(=O)C(C)NC(=O)C(CC(C)C)N(C)C(=O)C(C(C)C)NC(=O)C(CC(C)C)N(C)C(=O)CN(C)C1=O [Compound 44A, [2-((2R,3R)-5-(3-(benzyloxy)-4-chlorophenylthio)-3-methyltetrahydrofuran-2-yl)-2-(methylamino)acetic acid]^1-cyclosporin A] | 1 to 1000 |  |  |
| CCC1NC(=O)C(C2OC(OCc3ccc(-n4cccn4)cc3)CC2C)N(C)C(=O)C(C(C)C)N(C)C(=O)C(CC(C)C)N(C)C(=O)C(CC(C)C)N(C)C(=O)C(C)NC(=O)C(C)NC(=O)C(CC(C)C)N(C)C(=O)C(C(C)C)NC(=O)C(CC(C)C)N(C)C(=O)CN(C)C1=O [Compound 77A, [2-((2R,3R)-5-(4-(1H-pyrazol-1-yl)benzyloxy)-3-methyltetrahydrofuran-2-yl)-2-(methylamino)acetic acid]^1-cyclosporin A] |  |  | IC50 [3]: 1000 to 10000 nM |
| CCC1NC(=O)C(C2OC(SCc3cccc(OC)c3)CC2C)N(C)C(=O)C(C(C)C)N(C)C(=O)C(CC(C)C)N(C)C(=O)C(CC(C)C)N(C)C(=O)C(C)NC(=O)C(C)NC(=O)C(CC(C)C)N(C)C(=O)C(C(C)C)NC(=O)C(CC(C)C)N(C)C(=O)CN(C)C1=O (centres unmarked) [Compound 81A-s] |  | 1000 to 100000 |  |
| CCC1NC(=O)C(C2OC(Oc3cccc(OCc4ccccc4)c3)CC2C)N(C)C(=O)C(C(C)C)N(C)C(=O)C(CC(C)C)N(C)C(=O)C(CC(C)C)N(C)C(=O)C(C)NC(=O)C(C)NC(=O)C(CC(C)C)N(C)C(=O)C(C(C)C)NC(=O)C(CC(C)C)N(C)C(=O)CN(C)C1=O (single isomer, unassigned) [Compound 12A-o] | 1 to 1000 |  |  |
| CCC1NC(=O)C(C2OC(SCc3cc(Cl)ccc3Cl)CC2C)N(C)C(=O)C(C(C)C)N(C)C(=O)C(CC(C)C)N(C)C(=O)C(CC(C)C)N(C)C(=O)C(C)NC(=O)C(C)NC(=O)C(CC(C)C)N(C)C(=O)C(C(C)C)NC(=O)C(CC(C)C)N(C)C(=O)CN(C)C1=O (centres unmarked) [Compound 98A-s] |  | 1000 to 100000 |  |
| CCC1NC(=O)C(C2OC(Oc3ccc(OCc4ccccc4)cc3)CC2C)N(C)C(=O)C(C(C)C)N(C)C(=O)C(CC(C)C)N(C)C(=O)C(CC(C)C)N(C)C(=O)C(C)NC(=O)C(C)NC(=O)C(CC(C)C)N(C)C(=O)C(C(C)C)NC(=O)C(CC(C)C)N(C)C(=O)CN(C)C1=O (centres unmarked) [Compound 57A-o] |  | 1000 to 100000 |  |
| CCC1NC(=O)C(C2OC(OCc3cccc(OCC4CCOCC4)c3)CC2C)N(C)C(=O)C(C(C)C)N(C)C(=O)C(CC(C)C)N(C)C(=O)C(CC(C)C)N(C)C(=O)C(C)NC(=O)C(C)NC(=O)C(CC(C)C)N(C)C(=O)C(C(C)C)NC(=O)C(CC(C)C)N(C)C(=O)CN(C)C1=O (centres unmarked) [Compound 105] |  | 1000 to 100000 |  |
| CCC1NC(=O)C(C2OC(OC(C)c3ccc(Cl)cc3)CC2C)N(C)C(=O)C(C(C)C)N(C)C(=O)C(CC(C)C)N(C)C(=O)C(CC(C)C)N(C)C(=O)C(C)NC(=O)C(C)NC(=O)C(CC(C)C)N(C)C(=O)C(C(C)C)NC(=O)C(CC(C)C)N(C)C(=O)CN(C)C1=O (centres unmarked) [Compound 102] |  | 1000 to 100000 |  |
| CCC1NC(=O)C(C2OC(Sc3ccc(C)cc3)CC2C)N(C)C(=O)C(C(C)C)N(C)C(=O)C(CC(C)C)N(C)C(=O)C(CC(C)C)N(C)C(=O)C(C)NC(=O)C(C)NC(=O)C(CC(C)C)N(C)C(=O)C(C(C)C)NC(=O)C(CC(C)C)N(C)C(=O)CN(C)C1=O [Compound 2A, [2-((2R,3R)-3-methyl-5-(p-tolylthio)tetrahydrofuran-2-yl)-2-(methylamino)acetic acid]^1-cyclosporin A] | 1 to 1000 |  |  |
| CCC1NC(=O)C(C2OC(Sc3cccc(OCc4ccc(F)cc4C)c3)CC2C)N(C)C(=O)C(C(C)C)N(C)C(=O)C(CC(C)C)N(C)C(=O)C(CC(C)C)N(C)C(=O)C(C)NC(=O)C(C)NC(=O)C(CC(C)C)N(C)C(=O)C(C(C)C)NC(=O)C(CC(C)C)N(C)C(=O)CN(C)C1=O [Compound 24A, [2-((2R,3R)-5-(3-(4-fluoro-2-methylbenzyloxy)phenylthio)-3-methyltetrahydrofuran-2-yl)-2-(methylamino)acetic acid]^1-cyclosporin A] | 1 to 1000 |  |  |
